In patent US20130190324A1, “TOPICAL OCULAR DRUG DELIVERY” (The Regents of the University of Colorado, a body corporate, priority 2011, published 2013):
Converted amounts (≈) assume the structure as drawn. “Also recorded” adds a separate entry of the source. Where two headings read alike, the source gives them in different places.

Key:
[1] = Aqueous solubility of GFX and ion pair complex in PBS; format: physicochemical; conditions: phosphate buffer saline (PBS), thermodynamic from solid, phosphate buffer saline pH 7.4, 37° C., mean ± SD, n = 3
Protocol: PBS without amino acid was included as control. Samples were incubated at 37° C. for 24 hr in incubator shaker with constant shaking at 200 rpm. At the end of 24 hr of incubations, samples were filtered through 0.45 μm filter and filtrates were analyzed for drug content. All experiments were performed in triplicate.

[2] = single eye drop, cited from earlier work
[3] = system: New Zealand white rabbit cornea; assay: In vitro transport across rabbit cornea (Ussing chamber); format: in vitro ADME; conditions: for transport in presence of OCT competitive inhibitor MPP+: MPP+ 500 μM for GFX-ARG ion pair
Protocol: (§1) In vitro transport of […], and GFX-LYS were carried out across the New Zealand white rabbit cornea and sclera-choroid-[…]). Rabbit eyes were obtained within 24 hr of harvesting from Pel-Freez Biologicals (Rogers, Ark.) and shipped overnight in Hank's balanced salt solution on wet ice. Eyes were used immediately upon arrival. Eyes were washed with assay buffer and cleaned from the muscle and unwanted tissues. […] The small part of the sclera left with cornea helps in mounting the cornea on Ussing chambers. For isolation of the SCRPE, anterior and posterior parts were separated by a circumferential cut at the limbus. […] After separation of the retina, the eye cup was flattened with small cuts around the globe. […] A circulating water bath was used to maintain the temperature at 37° C. during the transport study. The pH of the assay buffer was maintained at 7.4 using 95% air-5% CO2 aeration which also helps in stirring of bathing solutions. Samples were collected (200 μL) from the receiver side every 30 minute for 3 hr and the lost volume was replaced with fresh assay buffer pre-equilibrated at 37° C. GFX levels were analyzed using an LC-MS/MS assay. […] GFX concentrations in the transport study and ocular tissue samples were analyzed using a validated LC-MS/MS method. […] Chromatographic separation of GFX and the internal standard moxifloxacin was performed on Obelisc C18 column (2.1×10 mm, 3 μm). Elution of analytes was performed using linear gradient elution with mobile phase consisting of 5 mM ammonium formate (pH 3.5) and acetonitrile (pH 3.5) with a flow rate of 300 μl/min and total run time of 6 min.

[4] = system: New Zealand white rabbit sclera-choroid-RPE (SCRPE); assay: In vitro transport across rabbit sclera-choroid-RPE (Ussing chamber); format: in vitro ADME; conditions: rabbit SCRPE; for transport in presence of OCT competitive inhibitor MPP+: MPP+ 500 μM for GFX-ARG ion pair
Protocol: as §1

[5] = In vivo ocular tissue distribution after single topical eye drop; design: species or system pigmented rabbits
Protocol: Male New Zealand Satin rabbits in the weight range of 1.8 to 3 kg were obtained from Western Oregon Rabbit Company (Philmoth, Oreg.). Rabbits were divided into two groups (2 animals each), one group received GFX solution (5 mg/ml) in sterile phosphate buffer saline (PBS), and the other group received the GFX-ARG (1:1) ion pair complex (5.0 mg/ml) solution in PBS. Rabbits were restrained in a rabbit restrainer and allowed to stabilize for 5-10 minutes. A topical eye drop (30 μl) of drug solution was applied in both eyes of rabbits using a positive displacement pipette (Gilson 10-100 μl) and sterile tips. To minimize the runoff of instilled dose, the eyelids were gently closed for few seconds after dosing. The time of dose administered was recorded for each animal. After 1 hr of dosing, blood samples were collected from the marginal ear vein and rabbits were euthanized by intravenous injection of sodium pentobarbitone (150 mg/kg) in the marginal ear vein. […]
GFX content in rabbit ocular tissues was measured from the tissues by acetonitrile based extraction. […]
The aqueous humor and vitreous samples were analyzed directly after dilution, without extraction. […]
GFX concentrations in the transport study and ocular tissue samples were analyzed using a validated LC-MS/MS method. […]

conjunctiva = assay: In vitro transport of GFX prodrugs across conjunctiva; format: in vitro ADME, Rabbit
[6] = system: calf sclera-choroid-RPE (SCRPE); assay: In vitro transport of substrate cassette across normoxic and hypoxic calf SCRPE
Source text: (§2) Animals used in this study were those that were sacrificed as part of other experiments approved by the Institutional Animal Care Committee of the Colorado State University (Fort Collins) and University of Colorado Anschutz Medical campus. Hypoxic and normoxic calf eyes were obtained from the Department of Physiology, School of Veterinary Medicine, Colorado State University (Fort Collins, Colo.). Briefly, 1 day old male Holstein calves (n=4) were kept in hypobaric hypoxic chambers (PB=445 mm Hg) for 2 weeks. For control experiment, age matched calves (n=4) were kept at ambient altitude (PB=650 mm Hg) and normoxia for two weeks. Hypoxic and normoxic rat eyes were obtained from the Department of Medicine, University of Colorado Anschutz Medical campus (Aurora, Colo.). Sprague Dawley rats (n=4) were maintained in hypobaric hypoxic chambers (PB=380 mm Hg) for 6 weeks and age matched controls were kept at ambient pressure and normoxia.
(§3) In vitro transport studies across hypoxic and control calf cornea and sclera-choroid-RPE (SCRPE) were carried using cassette dosing approach. A cassette of drug transporter substrates, Gly-Sar (PEPT), valacylovir (ATB^0+), MPP^+ (OCT), and phenylacetic acid (MCT) at a concentration of 100 μM each in assay buffer was prepared. Briefly, the calf eyes were harvested immediately after euthanasia and transferred to the laboratory on ice. Upon arrival in the lab, the eyes were washed with assay buffer and cleaned from muscle and unwanted tissues. Anterior and posterior parts were separated by circumferential cut at the limbus. Vitreous was removed and the neural retina was separated from the choroid-RPE by filling the eye cup with assay buffer. The retina afloat in assay buffer was isolated and the eye cup was divided into two pieces (˜1.5×1.5 cm) of sclera-choroid-RPE. Isolated tissues were mounted on modified Ussing chambers (Navicyte, Sparks, Nev.) such that the episcleral side of SCRPE or epithelial side of cornea was facing the donor chamber and retinal side or endothelial side of the cornea was facing the receiver chamber. The chambers were filled with 1.5 ml of assay buffer at 37° C. with (donor side) or without (receiver side) the cocktail of drug transporter substrates. For the study of effect of transporter inhibitors, cocktail mixture (500 μM) of transporter inhibitors was added on both donor and acceptor sides.
(§4) During the transport study, the bathing fluids were maintained at 37° C. using circulating warm water. The pH of the fluids was maintained at pH 7.4 using 95% air-5% CO2 aeration. Samples were collected (200 μL) from receiver side every hour for 6 hours and the removed volume was replaced with fresh assay buffer pre-equilibrated to 37° C. Drug levels were analyzed using a LC-MS/MS assay. Permeation data were corrected for dilution of the receiver concentrations with sample volume replenishment.
(§5) Analyte concentrations in transport study samples were measured using LC-MS/MS method after 5-fold dilution with acetonitrile to reduce the salt concentrations. A cassette analysis method was developed for simultaneous analysis of Gly-Sar, valacylovir, and MPP Phenyl acetic acid was analyzed separately with a negative ionization method and a normal phase separation method. An API-3000 triple quadrupole mass spectrometry (Applied Biosystems, Foster City, Calif., USA) coupled with a PerkinElmer series-200 liquid chromatography (Perkin Elmer, Waltham, Mass., USA) system was used for analysis. Gly-Sar, valacylovir and MPP were separated on Supelco C-5 column (2.1×10 mm, 3 μm) using water containing 0.1% formic acid (A) and acetonitrile:methanol (50:50 v/v) containing 0.1% formic acid (B) as mobile phase. A linear gradient elution at a flow rate of 0.3 ml/min with a total run time of 9 min was employed. Phenyl acetic acid was separated in normal phase separation mode on Obelisc-N silica column (2.1×10 mm, 3 μM) using 5 mM ammonium formate at pH 3.5 (A) and acetonitrile (B) as mobile phase.

calf cornea = assay: In vitro transport of substrate cassette across normoxic and hypoxic calf cornea
Source text: as §2, §3, §4, §5

[7] = cited from earlier work

COc1c(N2CCNC(C)C2)c(F)cc2c(=O)c(C(=O)O)cn(C3CC3)c12 (stereo not shown) [GFX, gatifloxacin]
solubility at 24 h [1]: 5.49 mg/mL (≈ 14.6 mM)
reported Tmax ([2]; aqueous humor): 19.8 min
reported Tmax ([2]; cornea): 4.98 min
solubility (physchem; water): 0.64 mg/mL (≈ 1.7 mM)
solubility (physchem; water for injection): 2.5 mg/mL (≈ 6.66 mM)

COc1c(N2CCN(C(=O)C(N)CCCNC(=N)N)C(C)C2)c(F)cc2c(=O)c(C(=O)O)cn(C3CC3)c12 (stereo not shown) [GFX-ARG, 7-(4-(2-amino-5-guanidinopentanoyl)-3-methylpiperazin-1-yl)-1-cyclopropyl-6-fluoro-8-methoxy-4-oxo-1,4-dihydroquinoline-3-carboxylic acid]
cumulative % transport / permeability compared with GFX (in words) [3]: significantly improved permeability
transport in presence of OCTN inhibitor L-carnitine ([3]; L-carnitine 500 μM): did not show any significant inhibitory effect
transport in presence of OCT competitive inhibitor MPP+ [3]: inhibited significantly
cumulative % transport in presence vs absence of ATB0+ inhibitor α-methyl tryptophan ([3]; inhibitor 500 μM): no significant difference
cumulative % transport / permeability compared with GFX (in words) [4]: significantly improved permeability
transport in presence of OCTN inhibitor L-carnitine ([4]; L-carnitine 500 μM): did not show any significant inhibitory effect
transport in presence of OCT competitive inhibitor MPP+ [4]: inhibited significantly
cumulative % transport in presence vs absence of ATB0+ inhibitor α-methyl tryptophan ([4]; inhibitor 500 μM): no significant difference
GFX ocular tissue levels compared with GFX alone (in words) ([5]; all ocular tissues, 1 hr after single topical 30 μl eye drop, 5 mg/ml in PBS): higher concentrations of GFX in all ocular tissues; also recorded: enhanced ocular delivery to all ocular tissues
solubility (physchem; water): 25.5 mg/mL (≈ 48 mM)
solubility (physchem; water for injection): 25.5 mg/mL (≈ 48 mM)

COc1c(N2CCNC(C)C2)c(F)cc2c(=O)c(C(=O)NCCCN(C)C)cn(C3CC3)c12 (stereo not shown) [GFX-OCT, 1-cyclopropyl-N-(3-(dimethylamino)propyl)-6-fluoro-8-methoxy-7-(3-methylpiperazin-1-yl)-4-oxo-1,4-dihydroquinoline-3-carboxamide]
cumulative % transport / permeability compared with GFX (in words) [3]: significantly (p<0.01) higher than GFX
transport in presence of OCT competitive inhibitor MPP+ [3]: significantly inhibited
cumulative % transport / permeability compared with GFX (in words) [4]: significantly (p<0.01) higher than GFX
transport in presence of OCT competitive inhibitor MPP+ [4]: significantly inhibited
levels in posterior tissues compared with GFX (in words) ([5]; vitreous humor and CRPE, 1 h after topical eye drop): higher concentrations of GFX in all posterior tissues
cumulative % transport compared with GFX (in words) (conjunctiva): significantly (p<0.01) higher than GFX
transport in presence of OCT competitive inhibitor MPP+ (conjunctiva): significantly inhibited
solubility (physchem; water for injection): 33.3 mg/mL (≈ 72.4 mM)

CC(C)[C@H](N)C(=O)OCCOCn1cnc2c(=O)[nH]c(N)nc21 [valacylovir]
apparent permeability (Papp) across hypoxic vs normoxic tissue (in words) ([6]; calf SCRPE): significantly higher across normoxic SCRPE than hypoxic SCRPE
transport across hypoxic vs normoxic tissue (in words) ([6]; calf SCRPE, cassette 100 μM): significantly decreased in hypoxic calf SCRPE; also recorded: significantly higher across normoxic calf SCRPE than hypoxic calf SCRPE
decrease in cumulative % transport across hypoxic tissue ([6]; hypoxic vs normoxic calf SCRPE): 61%
apparent permeability (Papp) across hypoxic vs normoxic tissue (in words) (calf cornea; calf cornea): significantly higher across normoxic cornea than hypoxic cornea
transport across hypoxic vs normoxic tissue (in words) (calf cornea; calf cornea, cassette 100 μM): significantly higher across normoxic calf cornea than hypoxic calf cornea
decrease in cumulative % transport across hypoxic tissue (calf cornea; hypoxic vs normoxic calf cornea): 36%
increase in oral bioavailability as compared to parent acyclovir [7]: three to five fold increase
